The source of these data is US7842671B1, “Peptidomimetic inhibitors of STAT activity and uses thereof” (University of South Florida, priority 2003, dated 2010).

One test addresses Stat5:Stat5. In words: EMSA of Stat5:Stat5 DNA-binding in nuclear extracts. Type of test: biochemical, mouse. The settings on record: nuclear extracts pre-incubated 30 min, mean and SD of at least 3 assays, read-out: IC50 values against STAT Dimers, Stat5:Stat5. On the procedure:
(§1) Nuclear extract preparation and gel shift assays. Nuclear extracts were prepared from cell lines and used for electrophoretic mobility shift assay (EMSA) as previously described (Garcia, R. et al. (1997); Yu, C. L. et al. (1995); Turkson, J. et al. (1998)). In some cases, cells were pre-treated with peptidomimetics for the indicated times (12-48 h) prior to harvesting for nuclear extract preparation. In other studies, nuclear extracts were pre-incubated with peptidomimetics for 30 min at room temperature prior to incubation with radiolabeled probe. The ^32P-radiolabeled oligonucleotide probes used are hSIE (high affinity sis-inducible element, m67 variant, 5′-[…]-3′) (SEQ ID NO. 3) that binds both Stat1 and Stat3 (Garcia, R. et al. (1997); Wagner B. J. et al. (1990)) and MGFe (mammary gland factor element from the bovine β-casein gene promoter, 5′-[…]-3′) (SEQ ID NO. 4) that binds Stat1 and Stat5 (Gouilleux, F. et al. (1995); Seidel, H. M. et al. (1995)).
Peptidomimetics of the invention can be prepared by replacing prolyl or alanyl residue at the peptide bond that is N-terminal to the phosphotyrosine (Y*) of a peptide such as PY*L or AY*L with an organic substituent such as an optionally substituted aryl or heteroaryl group. The activities of STATs were measured in nuclear extracts (prepared from epidermal growth factor (EGF)-stimulated fibroblasts) as DNA-bound protein complexes by electrophoretic mobility shift assay (EMSA). STAT-DNA complexes detected include Stat3:Stat3 homodimers (upper band), Stat1:Stat3 heterodimers (intermediate band) and Stat1:Stat1 homodimers (lower band) (FIG. 1A) when a ^32P-labeled hSIE oligonucleotide probe is used, or Stat5:Stat5 (upper band) and Stat1:Stat1 dimers (lower band) (FIG. 1B) when ^32P-labeled MGFe is used as a probe.
(In general: In EMSA bound probe runs differently from free probe, usually more slowly.)

The test system of test [1] is Stat1:Stat1 and Stat3:Stat3 dimers. Put plainly: Dissociation-reassociation analysis of pooled Sf-9 lysates by EMSA. In kind it is biochemical. As to conditions: 30 min pre-treatment, 30-300 μM PY*LKTK or 3-1000 μM ISS 610, hSIE probe. The procedure:
Cytosolic extract preparation and luciferase assays. Cytosolic extract preparation from fibroblasts and luciferase assays were previously described (Turkson, J. et al. (1998); Turkson, J. et al. (1999)). Briefly, after two washes with PBS and equilibration for 5 min with 0.5 ml PBS-0.5 mM EDTA, cells were scraped off the dishes and the cell pellet was obtained by centrifugation (4,500×g, 2 min, 4° C.). Cells were resuspended in 0.4 ml of low-salt HEPES buffer (10 mM HEPES (pH 7.8), 10 mM KCl, 0.1 mM EGTA, 0.1 mM EDTA, 1 mM phenylmethylsulfonyl fluoride, and 1 mM dithiothreitol) for 15 min, lysed by the addition of 20 μl of 10% Nonidet P-40 (NP-40), and centrifuged (10,000×g, 30 s, 4° C.) to obtain the cytosolic supernatant, which was used for luciferase assays (Promega) measured with a luminometer. Cytosolic lysates containing activated Stat3 or Stat1 that were used for dissociation-reassociation analysis were prepared from baculovirus-infected Sf-9 insect cells as previously described (Turkson, J. et al. (2001); Zhang, Y. et al. (2000)). Briefly, cultured dishes of Sf-9 cells were washed twice with ice-cold 1×PBS and then PBS containing 1 mM sodium orthovanadate.

Another test has as its system NIH3T3/v-Ras. Put plainly: Soft-agar growth of v-Ras-transformed fibroblasts. In kind it is cell-based, mouse. The settings on record: 1 mM every 2-3 days. On the procedure:
(§2) Cell proliferation, soft-agar growth and Apo-BrdU labeling studies. Proliferating fibroblasts and human tumor cells were counted by phase-contrast microscopy for viable cells (using tyrpan blue exclusion). Colony formation assays in six-well dishes and quantification of colonies by iodonitrotetrazolium violet have been previously described (Turkson, J. et al. (1999)). Treatment of cells with inhibitors was initiated 1 day after seeding cells by adding 75 μl of medium with or without inhibitor, and repeated every two to three days. Apoptosis was measured by Apo-BrdU labeling and following the supplier's (PharMingen; San Diego, Calif.) instructions.
Previous studies with PY*LKTK-MTS (SEQ ID NO. 1) (Turkson, J. et al., 2001)) confirmed that inhibition of constitutive Stat3 activation blocks Src transformation (Turkson, J. et al. (1998); Turkson, J. et al., (1999); Bromberg, J. R. et al. (1998)).

The test system of another test is MDA-MB-231. Type of test: cell-based, human. As to conditions: 1 mM, MDA-MB-231, four days. On the procedure: as §2
(§3) Stat3 has an essential role in cell proliferation, and constitutively-active Stat3 is required for growth of transformed and tumor cells that harbor aberrant Stat3 signaling. Studies were performed to determine the effects of the peptidomimetic-mediated inhibition of Stat3 on cell proliferation using trypan blue exclusion for viable cell counts.

The next test has as its system MDA-MB-435. Type of test: cell-based, human. As to conditions: 1 mM, MDA-MB-435, four days. On the procedure:
as §2, §3

Another test deals with MDA-MB-453. In kind it is cell-based, human. The settings on record: 1 mM. On the procedure:
as §2, §3

Test [2] has as its target T1, Stat3 (Mus musculus, UniProt P42227). In kind it is cell-based. Also noted: nuclear extracts prepared from v-Src-transformed NIH3T3/v-Src; endogenous in cells; host or cells: NIH3T3/v-Src. The procedure: as §1
The target in test [3] is T1, Stat3. Type of test: cell-based. Also noted: nuclear extracts (prepared from epidermal growth factor (EGF)-stimulated fibroblasts); endogenous in cells; host or cells: NIH3T3 fibroblasts stimulated with EGF.

Each structure is given as a SMILES string.

T1 sequence (P42227 whole entry): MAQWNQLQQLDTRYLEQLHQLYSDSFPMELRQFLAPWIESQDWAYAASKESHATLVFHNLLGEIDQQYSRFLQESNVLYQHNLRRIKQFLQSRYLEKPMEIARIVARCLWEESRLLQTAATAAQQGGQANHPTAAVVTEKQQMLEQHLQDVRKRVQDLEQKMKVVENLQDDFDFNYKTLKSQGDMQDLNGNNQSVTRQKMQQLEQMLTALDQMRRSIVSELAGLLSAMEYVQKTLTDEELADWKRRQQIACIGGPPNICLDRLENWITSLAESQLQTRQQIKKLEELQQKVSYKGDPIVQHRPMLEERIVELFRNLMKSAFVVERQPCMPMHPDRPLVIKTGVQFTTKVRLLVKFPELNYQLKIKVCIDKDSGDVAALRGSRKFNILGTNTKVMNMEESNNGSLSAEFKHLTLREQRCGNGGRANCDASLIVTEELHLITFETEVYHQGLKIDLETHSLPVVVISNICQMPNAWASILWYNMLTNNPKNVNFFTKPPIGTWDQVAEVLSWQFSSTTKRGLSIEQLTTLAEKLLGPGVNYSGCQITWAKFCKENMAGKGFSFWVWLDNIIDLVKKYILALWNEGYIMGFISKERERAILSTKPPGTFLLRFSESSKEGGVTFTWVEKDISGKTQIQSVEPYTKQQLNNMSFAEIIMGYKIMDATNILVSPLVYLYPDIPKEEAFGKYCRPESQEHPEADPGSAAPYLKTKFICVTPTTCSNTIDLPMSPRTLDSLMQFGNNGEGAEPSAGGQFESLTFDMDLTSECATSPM

For `CC(C)CC(NC(=O)C(Cc1ccc(OP(=O)(O)O)cc1)NC(=O)c1ccc(C#N)cc1)C(=O)O` (centres unmarked) [ISS 610], the IC50 on Stat5:Stat5 turned out to be 285 µM. Further, the “effect on STAT dimers in mixed Stat1:Stat1 and Stat3:Stat3 lysates” value in test [1] is given as “appearance of an additional intermediate band representing Stat1:Stat3 heterodimers”. In addition, in the test with NIH3T3/v-Ras, the soft-agar growth entry is “no effect”. Besides, the cell proliferation entry was “significantly suppresses proliferation” in the test with MDA-MB-231, “significantly suppresses proliferation” with MDA-MB-435 and “no effect on cell proliferation” with MDA-MB-453. In addition, the “Stat3 activation in Src-transformed fibroblasts (EMSA)” value at Stat3 [2] is “time-dependent reduction of Stat3 activation”. The “ligand (EGF)-induced STAT activation” value on Stat3 [3] is “preferential inhibition of activation of Stat3”.

Usually IC50 stands for the concentration that inhibits the measured activity by half.
